Source: US9913854B2, “Methods and compositions for reducing the proliferation of gram positive bacteria” (priority 2012, dated 2018)
≈ marks a conversion by molar mass, not a printed value. Entries after “also recorded” stand apart in the source; their conditions may differ. Read-outs that look alike come from different tables or passages of the source.

Experiments:
S. aureus tarO mutant = assay: Dye sensitivity test on agar plates; format: cell-based, Staphylococcus aureus; conditions: for selective suppression of growth of tarO mutant but not parental strain on dye agar: Newman ΔtarO vs Newman; for growth on agar with Congo Red: tarO mutant, 0.08% w/v Congo Red
Protocol: (§1) Congo Red sensitivity tests were conducted as previously described (Hubscher et al., FEMS Microbiol. Lett. 295:251-260, 2009), with minor modification. Briefly, 10-fold dilutions, starting at 10^6 colony forming units (CFU) in 5 μL, were spotted on brain heart infusion (BHI) agar or Luria-Bertani (LB) agar, supplemented with 0.08% (w/v) Congo Red where appropriate. The Congo Red agar plates were incubated at 37° C. or 30° C. for 24 hours. As a precaution to prevent possible inactivation of Congo Red by light, the plates were incubated in the dark. Sensitivity to Congo Red was determined by comparing colony density between parental and mutant strains on control and Congo Red plates. Sudan Red 7B (0.08% w/v), Calcofluor White (0.01% w/v), Direct Red (0.08% w/v), Mordant Black (0.08% w/v), or Acid Red (0.08% w/v) in BHI agar were tested similarly.

C. elegans = assay: Toxicity against uninfected C. elegans; format: in vivo, Caenorhabditis elegans; conditions: single agent; tunicamycin 6.25-100.0 mg/L, Congo Red 3.1-50.0 mg/L; uninfected worms
Protocol: (§2) C. elegans glp-4(bn2); sek-1(km4) was used for all experiments and infected essentially as described in Breger et al. (PLoS Pathog. 3:e18, 2007), with minor modifications. This mutant line was selected for liquid assay experiments because they are unable to produce progeny at 25° C. (Miyata et al., Genetics 178:903-918, 2008), and the deleted sek-1 gene encodes a conserved mitogen-activated protein (MAP) kinase involved in innate immunity (Kim et al., Science 297:623-626, 2002), expediting the rate of killing. Worms were cultured and maintained on nematode growth medium (NGM) agar containing lawns of E. coli HB101 (Breger et al., PLoS Pathog. 3:e18, 2007).
(§3) To assess the sensitivity of C. elegans to infection by S. aureus RN6390 or an isogenic ΔtarO strain, the bacteria were cultured in TSB at 37° C. Overnight cultures were plated onto 10 cm TSB agar plates for 18 hours at 37° C., and cooled at room temperature for 30 minutes. Washed young adult worms were infected on lawns of S. aureus strains for 3 hours at 25° C. After washing three times with M9, worms were transferred into the wells of a six well microtiter plates (40 worms per well). Each well contained 2 mL of assay medium (20% BHI: 80% M9 v/v) containing various concentrations of Congo Red, tunicamycin, or a combination of Congo Red and tunicamycin. […]

S. aureus RN4220ΔtarO = assay: MIC, CLSI broth microplate assay; format: cell-based; conditions: Staphylococcus aureus
Protocol: (§4) In vitro susceptibility tests (minimum inhibitory concentration [MIC]) were conducted using the Clinical and Laboratory Standards Institute (CLSI) broth microplate assay guidelines (Clinical and Laboratory Standards Institute, Performance Standards for Antimicrobial Susceptibility Testing; 16th Informational Supplement, CLSI M100-S16, Wayne, Pa., 2006). Because of temperature sensitivity, to determine susceptibility of RN4220 ΔltaS, bacteria were cultured at 30° C. for 20 h.

S. aureus RN6390ΔtarO = assay: MIC, CLSI broth microplate assay; format: cell-based; conditions: Staphylococcus aureus
Protocol: as §4

S. aureus RN6390 = assay: MIC, CLSI broth microplate assay; format: cell-based; conditions: Staphylococcus aureus; strain RN6390
Protocol: as §4

S. aureus RN4220ΔtarA = assay: MIC, CLSI broth microplate assay; format: cell-based; conditions: Staphylococcus aureus
Protocol: as §4

S. aureus NewmanΔtarO = assay: MIC, CLSI broth microplate assay; format: cell-based; conditions: Staphylococcus aureus
Protocol: as §4

[1] = test system: S. aureus tarO and tarA mutants lacking WTA; assay: MIC, for mutants lacking WTA; format: cell-based, Staphylococcus aureus
Protocol: as §4
Minimum inhibitory concentrations (MICs) for Congo Red were determined by microdilution assay. Consistent with the results of agar plate tests, the parental strain RN4220, and isogenic tarK, and ltaS mutants, as well as an ltaS strain complemented on a multicopy plasmid, were all resistant to Congo Red at concentrations>1024 mg/L (Table 2).

[2] = test system: C. elegans infected with S. aureus RN6390 ΔtarO; assay: C. elegans infection model, S. aureus RN6390 ΔtarO; format: in vivo, Caenorhabditis elegans; conditions: Congo Red alone 3.1-25.0 mg/L
Protocol: as §2, §3

S. aureus strain Newman = assay: Checkerboard assay, Congo Red and tunicamycin; format: cell-based, Staphylococcus aureus
Protocol: A standard checkerboard assay, using Congo Red and tunicamycin, was performed as described in Lorian (Antibiotics in Laboratory Medicine, 4th Edition, Baltimore, Md., Williams & Wilkins Co., 1996). To assess the kinetics of inhibition, cultures of strain Newman were started in TSB containing either Congo Red or tunicamycin. Briefly, an overnight culture of S. aureus strain Newman was diluted to approximately 10^5 CFU/mL in 10 mL of TSB containing 10 mg/L Congo Red or 1 mg/L tunicamycin, and cultured at 37° C. statically. Following 2 h incubation, tunicamycin (1 mg/L final concentration) was added to the Congo Red culture, or Congo Red (10 mg/L final concentration) was added to the tunicamycin culture. Following 6 h of additional incubation bacteria were enumerated by plating serial ten-fold dilutions.

S. aureus Newman ΔtarO = assay: Kinetics of Congo Red inhibition, growth in TSB; format: cell-based, Staphylococcus aureus; conditions: Newman tarO, 10 mg/L Congo Red
Protocol: FIG. 5 is a graph showing the growth of S. aureus strain Newman (closed circles) and Newman ΔtarO (open circles) in tryptic soy broth (TSB) before and following the addition of 10 mg/L Congo Red (black arrow).
To assess kinetics of Congo Red inhibition, growth of S. aureus strain Newman and its tarO mutant were assessed in TSB containing 10 mg/L Congo Red. Newman tarO began to die 3 hours after addition of Congo Red (FIG. 5). To probe the mechanism of killing, Congo Red-inhibited cells were examined by transmission electron microscopy (TEM) (FIGS. 6A-6D). […] Since Congo red contains two sulfonic-acid groups, the MICs for sulfanilamide which is developed from prontocil were determined in the Newman and tarO mutant strains.

[3] = test system: C. elegans infected with S. aureus RN6390; assay: C. elegans infection model, S. aureus RN6390; format: in vivo, Caenorhabditis elegans; conditions: Congo Red alone 3.1-25.0 mg/L
Protocol: as §2, §3

S. aureus tarK mutant = assay: Congo Red sensitivity test on agar plates; format: cell-based, Staphylococcus aureus; conditions: 0.08% w/v Congo Red
Protocol: as §1

S. aureus tarA mutant = assay: Congo Red sensitivity test on agar plates; format: cell-based, Staphylococcus aureus; conditions: 0.08% w/v Congo Red
Protocol: as §1

[4] = test system: S. aureus RN4220ΔltaS-ltaS; assay: MIC, CLSI broth microplate assay; format: cell-based, Staphylococcus aureus
Protocol: as §4

S. aureus RN4220ΔltaS = assay: MIC, CLSI broth microplate assay; format: cell-based, Staphylococcus aureus
Protocol: as §4

S. aureus RN4220ΔtarK = assay: MIC, CLSI broth microplate assay; format: cell-based, Staphylococcus aureus
Protocol: as §4

S. aureus RN4220 = assay: MIC, CLSI broth microplate assay; format: cell-based, Staphylococcus aureus
Protocol: as §4

S. aureus Newman [5] = assay: MIC, CLSI broth microplate assay; format: cell-based, Staphylococcus aureus
Protocol: as §4

S. aureus Newman [6] = assay: Transmission electron microscopy after Congo Red; format: cell-based, Staphylococcus aureus; conditions: Newman parental; 6 hours in TSB with 10 mg/L Congo Red
Protocol: Newman or Newman ΔtarO were inoculated to approximately 10^9 CFU/mL in TSB containing 10 mg/L Congo Red, and cultured at 37° C. for 6 h. Cells were collected at 0 or 6 h, fixed in Karnovsky's fixative (2% paraformaldehyde and 2.5% glutaraldehyde in cacodylate buffer [pH 7.4]), and processed for TEM using standard procedures described in Suzuki et al. (Invest. Ophthalmol. Vis. Sci. 52:3187-3192, 2011). For TEM, 60- to […] sections were obtained, viewed, and photographed with a transmission electron microscope (model 410; Philips Electronics NV, Eindhoven, The Netherlands).

S. aureus ltaS mutant = assay: Congo Red sensitivity test on agar plates; format: cell-based, Staphylococcus aureus; conditions: LB agar, 0.08% w/v Congo Red, 30° C. and 37° C.
Protocol: as §1
To determine whether loss of lipoteichoic acid (LTA) could also generate the Congo Red susceptible phenotype, an ltaS mutant of S. aureus was tested (Oku et al., J. Bacteriol. 191:141-151, 2009). The ltaS mutant is sensitive to heat and low osmolarity (Grundling et al., Proc. Natl. Acad. Sci. U.S.A. 104:8478-8483, 2007; Oku et al., J. Bacteriol. 191:141-151, 2009). Therefore, Congo Red was added at 0.08% w/v to Luria broth (LB) agar (having a higher NaCl concentration than BHI), and the strain was tested for Congo Red sensitivity at 30° C. […]

[7] = BHI agar, dye 0.08% w/v, 37° C., 24 hours

Compound: O=S(=O)(O)c1cc(Nc2nc(Nc3ccccc3)nc(N(CCO)CCO)n2)ccc1/C=C/c1ccc(Nc2nc(Nc3ccccc3)nc(N(CCO)CCO)n2)cc1S(=O)(=O)O [Calcofluor White]
- selective suppression of growth of tarO mutant but not parental strain on dye agar (S. aureus tarO mutant; BHI agar, dye 0.01% w/v, 37° C., 24 hours): conferred susceptibility

Compound: tunicamycin
- toxicity for C. elegans (C. elegans): dose dependent toxicity

Compound: Mordant black
- selective suppression of growth of tarO mutant but not parental strain on dye agar (S. aureus tarO mutant; [7]): conferred susceptibility

Compound: Nc1c(/N=N/c2ccc(-c3ccc(/N=N/c4cc(S(=O)(=O)O)c5ccccc5c4N)cc3)cc2)cc(S(=O)(=O)O)c2ccccc12 [Congo Red]
- MIC (S. aureus RN4220ΔtarO): 2 µg/mL (≈ 3.06 µM)
- MIC (S. aureus RN6390ΔtarO): 4 µg/mL (≈ 6.13 µM)
- MIC (S. aureus RN6390): > 1020 µg/mL
- MIC (S. aureus RN4220ΔtarA): 0.5 µg/mL (≈ 0.766 µM)
- MIC (S. aureus NewmanΔtarO): 1 µg/mL (≈ 1.53 µM)
- MIC ([1]; Staphylococcus aureus): 0.5 to 4 µg/mL (≈ 0.766 to 6.13 µM)
- MIC fold lower than resistant strains ([1]; tarO and tarA mutants vs parental, tarK, ltaS strains): 250-2000 fold
- rescue of infected nematodes (survival) [2]: rescue
- toxicity for C. elegans (C. elegans): little toxicity
- Congo Red MIC in presence of tunicamycin (S. aureus strain Newman; tunicamycin as low as 5 mg/L): 1 µg/mL
- synergy with tunicamycin (S. aureus strain Newman; two-dimensional checkerboard, 20 hours, 37° C.): strong synergy
- time after addition of Congo Red at which bacteria began to die (S. aureus Newman ΔtarO): 3 h
- rescue of infected nematodes (survival) [3]: little effect; also recorded: inability
- growth on agar with Congo Red (S. aureus tarK mutant): not affected
- growth on agar with Congo Red (S. aureus tarA mutant): neither tarA nor tarO strains grew
- MIC ([4]; Staphylococcus aureus): > 1020 µg/mL
- MIC ([4]; strain RN4220ΔltaS-ltaS (ltaS complemented on multicopy plasmid)): >1024 µg/mL
- MIC (S. aureus RN4220ΔltaS; Staphylococcus aureus, 20 h): > 1020 µg/mL
- MIC (S. aureus RN4220ΔltaS; strain RN4220ΔltaS, cultured at 30° C. for 20 h): >1024 µg/mL
- MIC (S. aureus RN4220ΔtarK; Staphylococcus aureus): > 1020 µg/mL
- MIC (S. aureus RN4220ΔtarK; strain RN4220ΔtarK): >1024 µg/mL
- MIC (S. aureus RN4220; Staphylococcus aureus, RN4220): > 1020 µg/mL
- MIC (S. aureus RN4220; strain RN4220): >1024 µg/mL
- MIC (S. aureus Newman [5]; Staphylococcus aureus, NEWMAN): > 1020 µg/mL
- MIC (S. aureus Newman [5]; strain Newman, single agent): >1024 µg/mL
- growth on agar with Congo Red (S. aureus tarO mutant; BHI agar, 37° C., 24 hours): highly susceptible; also recorded: neither tarA nor tarO strains grew
- growth on agar with Congo Red (S. aureus tarO mutant; LB agar, 30° C. and 37° C.): inhibited
- cell morphology by TEM (S. aureus Newman [6]): not detectably affected
- growth on agar with Congo Red (S. aureus ltaS mutant): no effect

Compound: CCNc1ccc2ccccc2c1N=Nc1ccc(N=Nc2ccccc2)cc1 [Sudan Red 7B]
- selective suppression of growth of tarO mutant but not parental strain on dye agar (S. aureus tarO mutant; [7]): conferred susceptibility

Compound: Nc1ccc(S(N)(=O)=O)cc1 [sulfanilamide]
- MIC (S. aureus NewmanΔtarO): > 128 µg/mL
- MIC (S. aureus Newman [5]; Staphylococcus aureus, strain Newman, single agent, read-out: MIC): > 128 µg/mL

Compound: CCN(CC)c1ccc2c(-c3ccc(S(=O)(=O)[O-])cc3S(=O)(=O)[O-])c3ccc(=[N+](CC)CC)cc-3oc2c1.[Na+] [Acid Red]
- selective suppression of growth of tarO mutant but not parental strain on dye agar (S. aureus tarO mutant; [7]): conferred susceptibility

Compound: Direct Red
- selective suppression of growth of tarO mutant but not parental strain on dye agar (S. aureus tarO mutant; [7]): conferred susceptibility
